Source: PMC8175851, “Effects of Genetic Polymorphism in CYP2D6, CYP2C19, and the Organic Cation Transporter OCT1 on Amitriptyline Pharmacokinetics in Healthy Volunteers and Depressive Disorder Patients” (Frontiers in Pharmacology, 2021)
Like-named read-outs stand apart in the source and are kept apart here.

Legend:
[1] = biological target: T1, OCT1 (Homo sapiens, UniProt O15245); experiment: in vitro
T1 construct: expressed in transfected cells
T1 sequence (O15245 1-554): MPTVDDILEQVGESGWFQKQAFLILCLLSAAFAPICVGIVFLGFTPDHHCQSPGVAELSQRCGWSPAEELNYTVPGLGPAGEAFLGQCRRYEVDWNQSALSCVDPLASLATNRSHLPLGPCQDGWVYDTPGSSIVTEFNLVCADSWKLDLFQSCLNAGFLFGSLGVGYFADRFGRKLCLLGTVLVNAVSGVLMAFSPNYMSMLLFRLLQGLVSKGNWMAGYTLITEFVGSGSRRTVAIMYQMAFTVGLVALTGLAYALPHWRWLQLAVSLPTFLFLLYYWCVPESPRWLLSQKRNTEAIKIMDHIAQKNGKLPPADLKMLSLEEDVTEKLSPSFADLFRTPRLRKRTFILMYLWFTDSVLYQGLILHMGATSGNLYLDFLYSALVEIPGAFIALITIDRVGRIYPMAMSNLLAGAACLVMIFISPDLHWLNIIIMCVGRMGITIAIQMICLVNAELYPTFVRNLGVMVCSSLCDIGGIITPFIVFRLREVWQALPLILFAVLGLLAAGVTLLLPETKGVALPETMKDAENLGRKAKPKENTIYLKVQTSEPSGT
Description: The inhibition of OCT1 by different psychotropic drugs was studied in transport experiments using HEK293 cells stably transfected with wild-type OCT1. The cells were generated by targeted chromosomal integration using the Flp-In system (Thermo Fisher Scientific, Darmstadt, Germany), as has been described in detail before ([Saadatmand et al., 2012]). The cells were cultured in Dulbecco’s Modified Eagle’s Medium supplemented with 10% foetal bovine serum, 100 U/ml penicillin, and 100 μg/ml streptomycin at 37°C, 5% CO2, and 95% relative humidity. Cells were kept in culture for no more than 30 passages. All buffers and reagents were purchased from Thermo Fisher Scientific (Darmstadt, Germany).
Approximately 48 h before the transport experiments, recombinant OCT1-expressing cells and empty vector-transfected control cells were seeded at a density of 4 × 10^5 cells/well in 12-well plates coated with poly-D-lysine and incubated as described above. On the day of the experiment, the cells were washed twice with prewarmed (37°C) Hank’s Balanced Salt Solution (HBSS). They were subsequently incubated for 3 min at 37°C with 1 µM of the fluorescent OCT1 substrate ASP^+ (4-(4-(dimethylamino)styryl)-N-methylpyridinium iodide) and increasing concentrations of the antidepressants in 500 µl HBSS. The reaction was stopped by adding 2 ml ice-cold HBSS. This was subsequently removed and the cells were lyzed in 500 µl radioimmunoprecipitation assay (RIPA) buffer for 10 min under shaking. The cell uptake of ASP^+ was quantified using a Tecan Ultra microplate reader (Tecan Group AG, Männedorf, Switzerland) at excitation wavelength 485 nm and emission wavelength 612 nm. The intracellular ASP^+ concentrations were normalised to the total amount of protein in the sample that was determined using the bicinchoninic acid assay ([Smith et al., 1985]). IC50 values were calculated using SigmaPlot 11 (Systat Software GmbH, Erkrath, Germany) and Prism 5 (GraphPad Software, San Diego, CA, United States).

[2] = Adverse effects of amitriptyline in healthy volunteers (visual analogue scales, pupillometry); type: in vivo, human
Description: After overnight fasting, a single dose of 25 mg […] dura GmbH, Darmstadt, Germany) was orally administered to each subject. […] For the study in healthy volunteers, the primary endpoints were the AUCs of plasma AT and NT concentrations. Secondary endpoints were the other pharmacokinetic parameters of AT and NT, as well as heart rate, blood pressure, pupil size effects, and possible adverse events (headache, fatigue, visual or hearing impairments, restlessness, nausea, dizziness, dry mouth, tremor, as well as sensations of hypothermia and heart palpitations determined using a visual analogue scale test). Pharmacokinetic parameters were calculated by non-compartmental analysis using Phoenix 64 WinNonlin version 6.3 (Certara Inc., Princeton, NJ, United States). AUCinf of AT was calculated from the time of dosing using the linear/log trapezoidal rule and extrapolated to infinity based on the last predicted concentration and using the terminal elimination rate constant (lambda z). AUC of NT was calculated from the time of dosing until the last measurement at 48 h using the linear/log trapezoidal rule, as a decline in NT concentrations was not observed in some subjects and extrapolation to infinity thus not possible.

[3] = tested on: OCT1; experiment: Plasma acylcarnitine concentrations as endogenous biomarkers for OCT1 activity in healthy volunteers; type: in vivo, human
Description: The peripheral venous blood samples of the healthy volunteers were treated with ethylenediaminetetraacetic acid (EDTA) for anticoagulation, centrifuged within 30 min after withdrawal (3,100 × g, 10 min, room temperature), and the plasma was stored at −20°C. For determining the plasma concentrations of AT, NT, IBC, 2-methylbutyrylcarnitine, and propionylcarnitine, plasma samples were mixed with twice the volume precipitation reagent of 10% (v/v) methanol and 90% (v/v) acetonitrile that included the corresponding deuterated internal standards AT-d6 (Biozol Diagnostica GmbH, Eching, Germany), NT-d3, IBC-d6, 2-methylbutyrylcarnitine-d9, and propionylcarnitine-d3 and d9 (all Santa Cruz Biotechnology, Heidelberg, Germany) and shaken for 15 min. After centrifugation (13,000 rpm, 15 min, room temperature), two-thirds of the supernatant were transferred to a new reaction tube and evaporated at 40°C under nitrogen flow. The residue was reconstituted under shaking in 0.1% methanoic acid and briefly centrifuged before quantification using a Nexera UHPLC system (Shimadzu, Kyoto, Japan) coupled to an API 4000 tandem mass spectrometer (AB Sciex, Darmstadt, Germany). Separation was done using a Brownlee SPP RP-Amide column (4.6 × 100 mm inner dimensions, 2.7 µm particle size; PerkinElmer, Rodgau, Germany) with a Phenomenex C18 pre-column (4 × 2 mm, Phenomenex, Aschaffenburg, Germany). For AT and NT, the mobile phase consisted of 0.1% (v/v) methanoic acid, 5.3% (v/v) methanol, and 31.7% (v/v) acetonitrile in water. For the carnitine derivatives, it consisted of 0.1% (v/v) methanoic acid, 0.43% (v/v) methanol, and 2.57% (v/v) acetonitrile in water. The lower limit of quantification was 0.5 ng/ml for AT and 0.1 ng/ml for NT. […]
In order to investigate the proposed suitability of IBC as a human in vivo biomarker for OCT1 activity ([Luo et al., 2020]), plasma concentrations of IBC as well as of 2-methylbutyrylcarnitine and propionylcarnitine were determined in a subgroup of 18 volunteers who participated in the study on AT pharmacokinetics. […]

[4] = no reference given, cited from earlier work
[5] = design: method as in Hardman et al., 2001; settings: ref Hardman et al., 2001; cited from earlier work
[6] = design: method as in Rudorfer and Potter, 1999; settings: ref Rudorfer and Potter, 1999; cited from earlier work

SMILES	inhibition at 3 min, 2.69 µM ([1]; human, HEK293 cells stably transfected with wild-type OCT1) [%]	IC50 ([1]; read-out: IC50 (OCT1 inhibition)) [µM]	serious adverse events ([2]; healthy volunteers, single oral 25 mg AT, entire study)	tolerability ([2]; healthy volunteers, single oral 25 mg AT, no placebo control)	time- and concentration-related adverse effects (dry mouth, visual or hearing impairment, restlessness, headache, nausea, dizziness, sensation of cold) and anticholinergic effects by pupillometry ([2]; visual analogue scales and pupillometry, 25 mg AT dose)	time of peak fatigue symptoms after administration ([2]; visual analogue scales, healthy volunteers, 25 mg AT, no placebo control) [h]	plasma IBC concentration relative to baseline IBC concentration ([3]; 2 h after 25 mg AT administration) [%]	plasma IBC concentration relative to baseline IBC concentration ([3]; 4 h after 25 mg AT administration) [%]	decrease in IBC plasma concentration observed in vivo ([3]; after 25 mg AT) [%]	positively charged fraction ([4]; at physiological pH)	logD7.4 ([4]; pH 7.4)	plasma protein binding [5] [%]	excreted unchanged in urine [6]	IC50 ([1]; inhibition of uptake of 1 µM ASP+, 3 min, HEK293 cells with wild-type OCT1, mean) [µM]
CN(C)CCC=C1c2ccccc2CCc2ccccc21 [Amitriptyline, amitriptyline]	23	28.6 ± 18.9	no serious adverse events occurred	generally well-tolerated	not observed	3	72	67	33	approximately 99%	3	95	less than 5%	
CNCCC=C1c2ccccc2CCc2ccccc21 [Nortriptyline, nortriptyline]														40.4 ± 16.2
